Laboratory results published in patent US12102660B2, “Association of N-acetylcysteine and colistin for use in bacterial infections” (Zambon S.P.A., priority 2017, dated 2024).
Like-named read-outs stand apart in the source and are kept apart here.

What was measured:
[1] = test system: colistin resistant A. baumannii clinical isolates; assay: MIC determination and classic checkerboard assays (colistin, NAC); type: cell-based, Acinetobacter baumannii; conditions: for MIC: Acinetobacter baumannii
Method: (§1) In vitro antimicrobial synergism between NAC and colistin was determined following EUCAST guidelines. In particular, the total fractional inhibitory concentration (ΣFIC) was calculated as follows: ΣFIC equals FIC of agent A plus FIC of agent B, where the FIC of agent A or B is the minimum inhibitory concentration (MIC) of agent A or B in the presence of the other divided by the MIC of agent A or B alone. Synergism was defined as a ΣFIC value of <0.5.
Classic checkerboard assays were used to investigate potential synergism between colistin (range 0.25-256 μg/ml) and NAC (range 0.5-32 mg/ml). Fraction inhibitory concentration indices (FICIs) were calculated, and synergism was defined as FICI values <0.5. Synergy between colistin and NAC was also confirmed by time-kill assays performed with one isolate, using two different concentrations of colistin (2 and 8 μg/ml, representing concentrations achievable in serum and epithelial lining fluid—ELF, respectively) and NAC (1.6 and 8 mg/ml, likely achievable in ELF by topical administration).

[2] = test system: S. maltophilia clinical isolates; assay: as above; type: cell-based, Stenotrophomonas maltophilia; conditions: for MIC: Stenotrophomonas maltophilia
Method: as §1
Twenty S. maltophilia clinical isolates were tested, including also four isolates from patients affected by cystic fibrosis (CF). […] Synergism between colistin (range 0.25-256 μg/ml) and NAC (range 0.5-32 mg/ml) was investigated by classic checkerboard assays. Fraction inhibitory concentration indices (FICIs) were calculated, and synergism was defined as FICI values <0.5. Time-kill assays were performed with two clinical isolates (including one strain resistant to trimethoprim-sulphamethoxazole, and one from CF). For this purpose, two different concentrations of colistin (2 and 8 μg/ml, representing concentrations achievable in serum and epithelial lining fluid—ELF, respectively) and NAC (1.6 and 8 mg/ml, likely achievable in ELF by topical administration) were tested alone and in combination.

[3] = seven colistin resistant A. baumannii clinical isolates
[4] = twenty S. maltophilia clinical isolates

MIC ([1]; isolate N50, read-out: NAC MIC) [mg/mL]	MIC ([1]; the remaining A. baumannii isolates, read-out: MIC of NAC) [mg/mL]	MIC ([1]; two of seven A. baumannii isolates, read-out: MIC of NAC) [mg/mL]	MIC ([2]; nine S. maltophilia isolates) [mg/mL]	MIC ([2]; one S. maltophilia isolate) [mg/mL]	MIC ([2]; the remaining S. maltophilia isolates) [mg/mL]	Compound	Colistin MIC ([1]; isolate N50) [mg/mL]	MIC50 [1, 3] [mg/mL]	MIC90 [1, 3] [mg/mL]	colistin MIC range [1, 3] [mg/mL]	colistin 8 μg/ml as multiple of MIC ([1]; strain Z165) [×MIC]	colistin 8 μg/ml as multiple of MIC ([1]; strain Z167) [×MIC]	MIC50 [2, 4] [mg/mL]	MIC90 [2, 4] [mg/mL]
> 32	> 32	32	16	> 32	32	CC(=O)N[C@@H](CS)C(=O)O [NAC, N-acetylcysteine]	–	–	–	–	–	–	–	–
–	–	–	–	–	–	colistin sulfate	0.016	0.064	0.128	0.016 to 0.256	0.25	0.06	0.016	0.064
